Tested on: Streptococcus faecalis
Experiment: In vitro antibacterial activity against eleven strains of Streptococcus faecalis (agar dilution method; tube dilution per footnote)
Assay type: cell-based
Conditions: Enterococcus faecalis, geometric mean against eleven strains of Streptococcus faecalis
Text: […] faecalis is classified as a species of Group D β-hemolytic streptococci, also known as enterococci. Infections caused by Group D β-hemolytic streptococci, in particular […] faecalis, are generally known to be resistant to cephalosporin antibiotics. The infections caused by Group D streptococci commonly involve the endocardium (endocarditis), the urinary tract, the intestines, the biliary tract, postoperative wounds, and interabdominal abscesses. Endocarditis is clinically a very important disease and is frequently difficult to treat by antibiotic therapy. The disease is commonly treated by infusion of penicillin G in combination with streptomycin or vancomycin. […] The results are shown in Table 1 where the activity is measured by the MIC values, defined as the concentration of the compound capable of inhibiting the growth of the test organism. |In Vitro Antibacterial Activity Against Eleven |Strains of Streptococcus faecalis | *Geometric mean MIC as determined by the tube dilution method against | eleven strains of Streptococcus faecalis.

SMILES	MIC [µg/mL]
Cc1nnc(SCC2=C(C(=O)O)N3C(=O)C(NC(=O)CSc4cc(Cl)ccc4Cl)C3SC2)s1 (stereo not drawn)	1.29
O=C(CSc1cc(Cl)ccc1Cl)NC1C(=O)N2C(C(=O)O)=C(CSc3cnsn3)CSC12 (stereo not drawn)	1.37
Cc1nsc(SCC2=C(C(=O)O)N3C(=O)C(NC(=O)CSc4cc(Cl)ccc4Cl)C3SC2)n1 (stereo not drawn)	1.88
O=C(CSc1cc(Cl)ccc1Cl)NC1C(=O)N2C(C(=O)O)=C(CSc3ncco3)CSC12 (stereo not drawn)	1.88
CC(=O)OCC1=C(C(=O)O)N2C(=O)C(NC(=O)CSc3cc(Cl)ccc3Cl)C2SC1 (stereo not drawn)	2
Cc1nnc(SCC2=C(C(=O)O)N3C(=O)C(NC(=O)CSc4cc(Cl)ccc4Cl)C3SC2)o1 (stereo not drawn)	2.13
Cn1nnnc1SCC1=C(C(=O)O)N2C(=O)C(NC(=O)CSc3cc(Cl)ccc3Cl)C2SC1 (stereo not drawn)	3.11
Cn1c(SCC2=C(C(=O)O)N3C(=O)C(NC(=O)CSc4cc(Cl)ccc4Cl)C3SC2)nnc(O)c1=O (stereo not drawn)	3.76
Nc1nnc(SCC2=C(C(=O)O)N3C(=O)C(NC(=O)CSc4cc(Cl)ccc4Cl)C3SC2)s1 (stereo not drawn)	4.26
Cc1nnc(SCC2=C(C(=O)O)N3C(=O)C(NC(=O)CSc4ccc(Cl)c(Cl)c4)C3SC2)s1 (stereo not drawn)	1.76
Cn1nnnc1SCC1=C(C(=O)O)N2C(=O)C(NC(=O)CSc3ccc(Cl)c(Cl)c3)C2SC1 (stereo not drawn)	4.83
O=C(CSc1cc(Cl)ccc1Cl)NC1C(=O)N2C(C(=O)O)=C(CO)CS[C@H]12 (stereo partly drawn) [OH, 7-[2-[(2,5-Dichlorophenyl)thio]acetamido]-3-hydroxymethyl-3-cephem-4-carboxylic acid]	3.11

Reference: US4311837A, “Certain heterocyclic thiomethyl derivatives of 7-(dihalogenated phenylthioacetamido)cephalosporanic acids useful in the treatment of infections caused by _Streptococcus faecalis” (Eli Lilly and Company, priority 1980, dated 1982)
